{"source": "ChEMBL document CHEMBL1129300", "about": "“Conformationally constrained analogues of diacylglycerol. 12. Ultrapotent protein kinase C ligands based on a chiral 4,4-disubstituted heptono-1,4-lactone template” (J Med Chem, 1996)", "data": [{"target": "Protein kinase C alpha type (Homo sapiens, UniProt P17252)", "assay": "Displacement of [3H-20]-PDBU from recombinant Protein kinase C alpha", "units": {"Ki": "nM"}, "values": [{"molecule": "CCCCCCCC/C=C\\CCCCCCCC/C=C1\\C[C@@](CO)(COC(C)=O)OC1=O", "Ki": 13}, {"molecule": "CCCCCCCC/C=C\\CCCCCCCC/C=C1/C[C@](/C=C/C(=O)OC)(CO)OC1=O", "Ki": 11}, {"molecule": "CCCCCCCC/C=C\\CCCCCCCC/C=C1/C[C@@](CO)(COC(C)=O)OC1=O", "Ki": 12}, {"molecule": "CCCCCCCC/C=C\\CCCCCCCC/C=C1\\C[C@](/C=C/C(=O)OC)(CO)OC1=O", "Ki": 20}]}]}
